Experimental data reported in PMC9804470, “A Formylglycine‐Peptide for the Site‐Directed Identification of Phosphotyrosine‐Mimetic Fragments” (Chemistry (Weinheim an Der Bergstrasse, Germany), 2022).
“Also recorded” adds a separate entry of the source. Like-named read-outs stand apart in the source and are kept apart here.

Key:
[1] = Solubility of peptide 3; assay type: physicochemical; conditions: in water, buffer, and DMSO; qualitative
[2] = biological target: T1, catalytic domain of human PTP1B (Homo sapiens, UniProt P18031); assay: Enzyme activity assay of PTP1B with fluorogenic substrate DiFMUP; assay type: biochemical; conditions: for Ki: read-out: KI PTP1B
T1 construct: catalytic domain of human PTP1B (amino acids 1–321); His7 (N, cleaved yes); made in house; host or cells: E. coli Rosetta (DE3)
T1 sequence (P18031 1-321): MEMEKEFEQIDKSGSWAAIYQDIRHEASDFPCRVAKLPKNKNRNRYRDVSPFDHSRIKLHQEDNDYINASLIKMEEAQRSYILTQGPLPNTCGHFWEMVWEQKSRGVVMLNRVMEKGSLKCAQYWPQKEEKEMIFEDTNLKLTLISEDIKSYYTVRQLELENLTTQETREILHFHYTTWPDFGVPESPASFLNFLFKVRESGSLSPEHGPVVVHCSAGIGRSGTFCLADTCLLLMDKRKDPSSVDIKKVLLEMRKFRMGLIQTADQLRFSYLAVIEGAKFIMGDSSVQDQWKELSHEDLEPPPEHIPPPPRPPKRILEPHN
Method: Protein Expression and purification: DNA encoding the catalytic domain of human PTP1B (amino acids 1–321) was subcloned into the pQLinkH vector. The gene encoding the N‐terminal His7‐tagged protein was over‐expressed at 17 °C in E. coli Rosetta (DE3). […] The His7‐tag was cleaved with tobacco etch virus protease at 20 °C prior to the gel‐filtration step. The catalytic domain of human SHP2 (amino acids 225–541) was purified from E. coli B21 (DE3). The overexpressed protein was fused to an N‐terminal His10‐tag. Cells were harvested and resuspended in 25 mM Tris‐HCl (pH=7.5), 50 mM NaCl, 1 % (v/v) Triton X‐100, 10 % (v/v) glycerol, 1 mM DTT. After cell lysis, debris was removed by centrifugation at 12,000 rpm for 30 min. The supernatant was filtered prior to affinity purification with Ni‐NTA agarose (Qiagen). The slurry was washed with 50 mM Tris‐HCl (pH=8.0), 500 mM NaCl supplemented with 25 mM imidazole. Reasonably pure protein was eluted with 200–300 mM imidazole. The purification was completed by size‐exclusion chromatography with a Superdex 75 16/600 column (GE Healthcare) equilibrated with 20 mM HEPES‐NaOH (pH=7.5), 50 mM NaCl, 1 mM DTT.
(§1) Enzyme activity assays of SHP2 and PTP1B: The catalytic activity of SHP2 catalytic domain and PTP1B were monitored using the fluorogenic substrate DiFMUP (6,8‐difluoro‐4‐methylumbelliferyl phosphate). Phosphatase reactions were performed at room temperature in 384‐well black plate, clear flat bottom, low flange, non‐binding surface (Corning, Cat# 3766) using a final volume of 20 μL and the following assay buffer conditions: 50 mM MOPS, pH=6.5, 200 mM NaCl, 50 μM TCEP, 0.03 % Tween‐20 (freshly added prior to each measurement). Test compounds were dissolved in DMSO or buffer at stock concentrations of 50, 20 or 10 mM and serially diluted. Enzyme (5 nM PTP1B or 2.5 nM SHP2 catalytic domain) and different concentrations of the tested compounds were incubated in buffer for 30–60 min at room temperature. Measurements were performed with a final concentration of 2.5 % DMSO unless stated otherwise at 37 °C and were performed in triplicate. Enzymatic reactions were started by adding DiFMUP (Invitrogen, cat# D6567) concentrations matching the experimentally determined KM values of the enzymes of 67 μM (PTP1B) or 72 μM (SHP2). Samples were excited at a wavelength of 360 nm and emitted fluorescence was recorded at 460 for 10 min using a microplate reader (infinite M1000 Pro, Tecan). Initial slope of fluorescence was determined in triplicate and IC50 values were calculated with GraphPad Prism 5. Determined IC50 values were converted into the corresponding KI values applying the Cheng Prusoff equation KI =IC50 /(1+[S]/KM ).

[3] = biological target: T2, SHP2 (Homo sapiens, UniProt Q06124); assay: Dynamic ligation screening of nucleophilic fragments with formylglycine peptide 3, SHP2; assay type: biochemical; conditions: 3 100 μM pre-incubated 5 min, fragment 200 μM, 30 min RT before DiFMUP, triplicates
T2 construct: catalytic domain of human SHP2 (amino acids 225–541); His10 (N); made in house; host or cells: E. coli B21 (DE3)
T2 sequence (Q06124 225-541): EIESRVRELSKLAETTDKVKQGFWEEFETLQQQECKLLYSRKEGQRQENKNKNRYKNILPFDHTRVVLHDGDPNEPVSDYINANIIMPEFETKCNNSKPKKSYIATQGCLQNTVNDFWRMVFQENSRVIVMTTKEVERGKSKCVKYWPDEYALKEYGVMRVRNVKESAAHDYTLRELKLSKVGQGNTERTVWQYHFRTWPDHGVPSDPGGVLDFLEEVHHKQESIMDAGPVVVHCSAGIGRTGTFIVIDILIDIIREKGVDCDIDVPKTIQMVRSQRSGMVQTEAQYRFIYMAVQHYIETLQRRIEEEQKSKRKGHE
Method: as §1
(§2) Dynamic ligation screening of nucleophilic fragments with 3: Under assay conditions described above, PTP1B or SHP2 were pre‐incubated with 3 (100 μM) for 5 min. Subsequently, (200 μM) of the respective fragments were added and the resulting mixtures were incubated for 30 min at RT, prior to DiFMUP addition.

[4] = biological target: T3, PTP1B (Homo sapiens, UniProt P18031); assay: Dynamic ligation screening of nucleophilic fragments with formylglycine peptide 3, PTP1B; assay type: biochemical; conditions: 3 100 μM pre-incubated 5 min, fragment 200 μM, 30 min RT before DiFMUP, triplicates
T3 construct: catalytic domain of human PTP1B (amino acids 1–321); His7 (N, cleaved yes); made in house; host or cells: E. coli Rosetta (DE3)
T3 sequence (P18031 1-321): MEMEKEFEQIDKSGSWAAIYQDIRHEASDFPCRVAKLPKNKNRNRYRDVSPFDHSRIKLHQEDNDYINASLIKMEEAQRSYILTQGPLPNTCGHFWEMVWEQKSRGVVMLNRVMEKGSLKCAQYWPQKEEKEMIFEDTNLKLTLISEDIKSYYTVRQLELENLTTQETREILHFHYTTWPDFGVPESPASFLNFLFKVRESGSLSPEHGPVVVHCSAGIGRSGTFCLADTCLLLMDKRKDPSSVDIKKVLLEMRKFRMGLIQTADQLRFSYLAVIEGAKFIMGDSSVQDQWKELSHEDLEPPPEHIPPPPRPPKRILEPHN
Method: as §1, §2

[5] = biological target: T3, PTP1B; assay: Apparent KI values of in situ ligation products of 3 (time- and concentration-dependent assay); assay type: biochemical
Method: as §1
Subsequently, over the course of 60 mins (every 15 min), 2 equivalents of fragment F1 were added to each of the different concentrations of 3 at RT, prior to DiFMUP addition.
Subsequently, fragment F2 was added at three different concentrations (1 equiv, 2 equiv, and 4 equiv) and the resulting mixtures were incubated for 30 min at RT, prior to DiFMUP addition.

[6] = biological target: T4, catalytic domain of human SHP2 (Homo sapiens, UniProt Q06124); assay: Enzyme activity assay of SHP2 catalytic domain with fluorogenic substrate DiFMUP; assay type: biochemical; conditions: hydrazine fragments alone, DiFMUP assay; Supporting Table 1
T4 construct: catalytic domain of human SHP2 (amino acids 225–541); His10 (N); made in house; host or cells: E. coli B21 (DE3)
T4 sequence (Q06124 225-541): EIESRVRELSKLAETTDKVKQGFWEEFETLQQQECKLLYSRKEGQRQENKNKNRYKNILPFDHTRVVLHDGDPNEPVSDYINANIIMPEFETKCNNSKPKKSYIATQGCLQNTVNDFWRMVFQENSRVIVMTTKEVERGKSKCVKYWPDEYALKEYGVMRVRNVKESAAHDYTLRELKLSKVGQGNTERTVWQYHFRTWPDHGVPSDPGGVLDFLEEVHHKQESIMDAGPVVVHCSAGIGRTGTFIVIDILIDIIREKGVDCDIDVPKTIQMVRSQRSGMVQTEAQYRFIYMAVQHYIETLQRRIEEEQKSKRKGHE
Method: Enzyme activity assays of SHP2 and PTP1B: The catalytic activity of SHP2 catalytic domain and PTP1B were monitored using the fluorogenic substrate DiFMUP (6,8‐difluoro‐4‐methylumbelliferyl phosphate). Phosphatase reactions were performed at room temperature in 384‐well black plate, clear flat bottom, low flange, non‐binding surface (Corning, Cat# 3766) using a final volume of 20 μL and the following assay buffer conditions: 50 mM MOPS, pH=6.5, 200 mM NaCl, 50 μM TCEP, 0.03 % Tween‐20 (freshly added prior to each measurement). Test compounds were dissolved in DMSO or buffer at stock concentrations of 50, 20 or 10 mM and serially diluted. Enzyme (5 nM PTP1B or 2.5 nM SHP2 catalytic domain) and different concentrations of the tested compounds were incubated in buffer for 30–60 min at room temperature. […] Enzymatic reactions were started by adding DiFMUP (Invitrogen, cat# D6567) concentrations matching the experimentally determined KM values of the enzymes of 67 μM (PTP1B) or 72 μM (SHP2). Samples were excited at a wavelength of 360 nm and emitted fluorescence was recorded at 460 for 10 min using a microplate reader (infinite M1000 Pro, Tecan). Initial slope of fluorescence was determined in triplicate and IC50 values were calculated with GraphPad Prism 5. Determined IC50 values were converted into the corresponding KI values applying the Cheng Prusoff equation KI =IC50 /(1+[S]/KM ).

With `CC(=O)N[C@@H](CC(=O)O)C(=O)N[C@@H](C)C(=O)N[C@@H](CC(=O)O)C(=O)N[C@@H](CCC(=O)O)C(=O)NC(C=O)C(=O)N[C@@H](CC(C)C)C(N)=O` (some centres unmarked) [Compound 3, N‐Acetyl‐L‐aspartyl‐L‐alaninyl‐L‐aspartyl‐L‐glutamyl‐2‐formylglycyl‐L‐leucinyl‐amide] the Solubility [1] was “highly soluble” and the Ki ([2]; SD) was 484 ± 30 µM.

With `Nc1ccc(CC(=O)O)cc1` [Compound F1, 4‐amino‐phenyl‐acetic acid] the “Enhancement of inhibition of SHP2 by fragment in combination with peptide 3 (fragment ligation assay)” value [3] was “over‐additive inhibition; also recorded: super‐additive inhibition” and the “Enhancement of inhibition of PTP1B by fragment in combination with peptide 3 (fragment ligation assay)” value [4] was “over‐additive inhibition; also recorded: super‐additive inhibition”.

With `Nc1ccc(NS(=O)(=O)C(F)(F)F)cc1` [Compound F2, N‐(4‐aminophenyl)‐trifluoromethyl sulfonamide] the “Enhancement of inhibition of SHP2 by fragment in combination with peptide 3 (fragment ligation assay)” value [3] was “over‐additive inhibition; also recorded: super‐additive inhibition”, the Ki ([5]; PTP1B, ligation product of F2 with 3, read-out: apparent KI of fragment ligation product with 3 (legend of Figure 5B)) was 17 µM and the “Enhancement of inhibition of PTP1B by fragment in combination with peptide 3 (fragment ligation assay)” value [4] was “over‐additive inhibition; also recorded: pronounced activity; also recorded: super‐additive inhibition”.

In the case of `NNc1ccc(S(=O)(=O)O)cc1` [Compound F3, 4‐hydrazo‐phenylsulfonic acid], the IC50 ([2]; hydrazine fragments alone, DiFMUP assay, Supporting Table 1) is reported as 34 µM, the Ki [2] is reported as 17 µM and the “Effect of fragment ligation with 3 on inhibition curves of PTP1B” value ([5]; inhibition at different concentrations, with and without 3 / fragment (Figure 5C, D)) is reported as “did not enforce inhibition of PTP1B further”. For the same compound, the IC50 [6] was greater than 250 µM.
